Laboratory results reported in patent US20260248833A1, “PYRIMIDINE NUCLEOSIDE TREATMENTS” (The Children`s Medical Center Corporation, priority 2022, published 2026).

Experiments:
Assay type in all cases: biochemical
[1] = target: T1, telomerase (Homo sapiens, UniProt O14746); test: Modified TRAP assay with exogenous dTTP on super-telomerase extracts; conditions: increasing levels of exogenous dTTP
T1 construct: expressed in transfected cells; host or cells: TERC-null 293T cells transfected with TERT and TERC expression vectors
T1 sequence (O14746 whole entry): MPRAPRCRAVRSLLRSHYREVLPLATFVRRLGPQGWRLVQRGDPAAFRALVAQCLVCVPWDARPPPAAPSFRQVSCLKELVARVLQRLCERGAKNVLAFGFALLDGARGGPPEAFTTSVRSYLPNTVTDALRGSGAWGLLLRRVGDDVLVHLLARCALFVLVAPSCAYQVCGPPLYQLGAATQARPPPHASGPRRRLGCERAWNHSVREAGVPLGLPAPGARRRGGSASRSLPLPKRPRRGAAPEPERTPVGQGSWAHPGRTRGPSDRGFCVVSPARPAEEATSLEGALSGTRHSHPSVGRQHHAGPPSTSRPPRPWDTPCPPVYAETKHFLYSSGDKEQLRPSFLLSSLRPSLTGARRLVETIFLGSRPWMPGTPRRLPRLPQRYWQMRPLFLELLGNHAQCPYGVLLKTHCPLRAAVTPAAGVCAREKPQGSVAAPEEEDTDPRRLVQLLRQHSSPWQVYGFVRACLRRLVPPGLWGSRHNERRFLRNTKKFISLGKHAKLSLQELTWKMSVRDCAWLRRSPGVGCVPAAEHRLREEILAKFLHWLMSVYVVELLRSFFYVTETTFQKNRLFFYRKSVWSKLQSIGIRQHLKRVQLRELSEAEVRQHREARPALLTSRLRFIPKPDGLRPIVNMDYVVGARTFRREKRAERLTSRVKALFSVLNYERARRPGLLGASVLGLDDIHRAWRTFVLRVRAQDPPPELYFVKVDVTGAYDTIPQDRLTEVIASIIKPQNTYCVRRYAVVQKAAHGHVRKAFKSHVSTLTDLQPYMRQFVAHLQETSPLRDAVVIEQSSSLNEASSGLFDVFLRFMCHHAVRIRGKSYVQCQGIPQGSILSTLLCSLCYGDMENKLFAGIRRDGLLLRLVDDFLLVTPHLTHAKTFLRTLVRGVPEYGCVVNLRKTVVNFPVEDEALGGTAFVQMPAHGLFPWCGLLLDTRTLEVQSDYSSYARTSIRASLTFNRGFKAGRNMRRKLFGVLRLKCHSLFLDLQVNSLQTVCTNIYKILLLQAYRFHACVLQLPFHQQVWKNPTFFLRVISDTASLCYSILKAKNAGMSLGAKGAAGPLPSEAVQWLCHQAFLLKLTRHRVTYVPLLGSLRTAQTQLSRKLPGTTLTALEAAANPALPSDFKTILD
T1 sequence (O60832 whole entry partner): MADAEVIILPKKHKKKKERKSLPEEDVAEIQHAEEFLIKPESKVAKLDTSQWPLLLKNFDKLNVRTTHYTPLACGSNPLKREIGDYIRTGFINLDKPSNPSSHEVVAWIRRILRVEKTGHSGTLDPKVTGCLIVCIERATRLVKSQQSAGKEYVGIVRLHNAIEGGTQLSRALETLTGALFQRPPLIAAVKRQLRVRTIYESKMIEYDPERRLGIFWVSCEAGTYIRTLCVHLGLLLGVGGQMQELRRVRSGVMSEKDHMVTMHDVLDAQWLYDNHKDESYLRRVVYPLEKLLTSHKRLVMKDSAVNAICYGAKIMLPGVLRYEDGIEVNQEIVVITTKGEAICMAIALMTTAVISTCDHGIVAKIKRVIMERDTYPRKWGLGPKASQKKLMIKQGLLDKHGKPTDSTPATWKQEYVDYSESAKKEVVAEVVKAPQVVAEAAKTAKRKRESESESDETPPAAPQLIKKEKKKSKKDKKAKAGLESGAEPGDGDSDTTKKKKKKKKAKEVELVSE
T1 sequence (Q9NPE3 whole entry partner): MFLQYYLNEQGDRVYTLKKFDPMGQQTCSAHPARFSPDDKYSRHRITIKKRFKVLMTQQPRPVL
T1 sequence (Q9NX24 whole entry partner): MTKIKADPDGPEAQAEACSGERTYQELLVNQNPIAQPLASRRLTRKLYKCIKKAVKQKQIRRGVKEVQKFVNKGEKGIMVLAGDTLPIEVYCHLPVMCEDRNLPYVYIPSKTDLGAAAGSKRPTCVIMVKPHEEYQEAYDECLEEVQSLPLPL
T1 sequence (Q9NY12 whole entry partner): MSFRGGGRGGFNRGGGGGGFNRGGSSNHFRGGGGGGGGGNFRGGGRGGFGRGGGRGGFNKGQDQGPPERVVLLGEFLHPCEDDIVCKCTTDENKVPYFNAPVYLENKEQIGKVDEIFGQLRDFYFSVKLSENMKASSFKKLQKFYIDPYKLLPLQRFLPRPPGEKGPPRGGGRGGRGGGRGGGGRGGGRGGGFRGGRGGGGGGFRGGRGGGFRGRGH
Protocol: (§1) TRAP assay: cell extracts for TRAP assays were made using TRAPeze™1×CHAPS Lysis Buffer (Roche) supplemented with RNASEin (Promega). Standard TRAP reactions (in FIG. 25a) were performed as described, with cell input normalized across samples using the Bio-Rad DC assay. TRAP assays were modified to enable unique dNTP concentrations in telomerase reactions from PCR reactions (FIG. 25) as follows: reactions were assembled with 1×TRAP buffer (20 mM Tris-HCl, pH 8.3; 1.5 mM MgCl2; 63 mM KCl; 0.05% Tween 20; 1 mM EGTA), TS, ACX, TNST, and NT primers as described (see Primers/Oligos below), dNTPs were added at physiologic concentrations (dATP 24 μM, dGTP 5.2 μM, dCTP 29 μM, dTTP 37 μM) unless otherwise mentioned in the figure legend, followed by telomerase extracts. TRAP assays were modified to detect GGAAAG repeats using the following primers: TS GGAAAG, TNST GGAAAG, ACX GGAAAG, and NT (see Primers/Oligos below). After addition of telomerase extracts, reactions were incubated for 30 minutes at 30° C. followed by heat inactivation at 95° C. for 5 minutes. […] Images were quantified for a given lane using ImageJ by measuring the signal of the telomerase repeat sized products divided by the signal of the internal control band for the lane, normalized to the same ratio for the untreated sample(s) in a given experiment. […]

[2] = target: T2, T-free telomerase (Homo sapiens, UniProt O14746); test: Modified GGAAAG TRAP assay on T-free super-telomerase extracts; conditions: increasing dTTP levels
T2 construct: expressed in transfected cells; host or cells: TERC-null 293T cells transfected with TERT and T-free TERC vectors
T2 sequence (O14746 whole entry): as the sequence (O14746 whole entry) above
T2 sequence (O60832 whole entry partner): as the sequence (O60832 whole entry partner) above
T2 sequence (Q9NPE3 whole entry partner): as the sequence (Q9NPE3 whole entry partner) above
T2 sequence (Q9NX24 whole entry partner): as the sequence (Q9NX24 whole entry partner) above
T2 sequence (Q9NY12 whole entry partner): as the sequence (Q9NY12 whole entry partner) above
Protocol: as §1

[3] = target: T3, immunopurified T-free telomerase (Homo sapiens, UniProt O14746); test: Direct telomerase assay on immunopurified T-free telomerase
T3 construct: made in house; host or cells: TERC-null 293T cells, transient transfection; anti-HA magnetic bead immunopurification, enzyme used on beads
T3 sequence (O14746 whole entry): as the sequence (O14746 whole entry) above
T3 sequence (O60832 whole entry partner): as the sequence (O60832 whole entry partner) above
T3 sequence (Q9NPE3 whole entry partner): as the sequence (Q9NPE3 whole entry partner) above
T3 sequence (Q9NX24 whole entry partner): as the sequence (Q9NX24 whole entry partner) above
T3 sequence (Q9NY12 whole entry partner): as the sequence (Q9NY12 whole entry partner) above
Protocol: Telomerase immunopurification: 293T TERC-null cells were transfected as described above with 3×HA-TERT and TERC/EGFP in 10-cm diameter dishes with reagents scaled up proportional to cell growth area. Two days after transfection, cells were harvested, washed once in PBS, and lysed in TRAPezeTM1×CHAPS Lysis Buffer (Roche) supplemented with RNasin Plus (Promega) and HALT protease inhibitor cocktail (Thermo Fisher), followed by incubation on ice for 30 minutes and precipitation of insoluble material by centrifugation. Immunoprecipitation was performed as described previously with minor modifications. Briefly, 75 μl of anti-HA magnetic beads (Sigma-Aldrich, SAE0197, mouse IgG1 monoclonal antibody, Clone HA-7, 50% beads by volume) were added to clarified lysates followed by 2 hours incubation at 4° C. while rotating. […] Images were quantified using ImageJ as follows. For total telomerase activity measurement (FIG. 25f), telomerase product signal in a lane was quantified and normalized to the loading control band signal within the same lane. […] For the analysis of telomerase repeat intensity (FIG. 25x), the signal of each repeat (defined as the three consecutive intense bands in the laddering pattern, as indicated in FIG. 25d), was quantified and first normalized to the loading control band signal for that lane. […]

telomerase activity [1]: enhanced telomerase activity
T-free telomerase activity, levels higher than without dTTP ([3]; at a concentration of 25 μM dTTP): approximately 50%
SMILES: Cc1cn([C@H]2C[C@H](O)[C@@H](COP(=O)(O)OP(=O)(O)OP(=O)(O)O)O2)c(=O)[nH]c1=O [dTTP, dT triphosphate]
T-free telomerase activity [2]: increased T-free telomerase activity with increasing dTTP levels
T-free telomerase activity ([3]; incorporation of α-32P-dATP, dTTP added): enhanced T-free telomerase activity in a dose-dependent manner
